Measured values published in PubChem BioAssay (NCI).
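Briefly, cells in 96-well plates were exposed to five compound concentrations for 48 h, and endpoints were estimated by linear interpolation. GI50: concentration for 50% inhibition of growth. TGI denotes the concentration required for complete inhibition of growth.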

Legend:
Assay in all cases: growth of human tumour cells (NCI), 48 h
[1] = test system: SK-MEL-2 melanoma
[2] = test system: CCRF-CEM leukemia
[3] = test system: 786-0 renal
[4] = test system: SR leukemia
[5] = test system: UO-31 renal
[6] = test system: NCI-H522 lung
[7] = test system: ACHN renal
[8] = test system: SF-295 CNS
[9] = test system: U251 CNS
[10] = test system: NCI-H226 lung

Row | Compound | GI50 [1] [µM] | TGI [1] [µM] | GI50 [2] [µM] | TGI [2] [µM] | GI50 [3] [µM] | TGI [3] [µM] | GI50 [4] [µM] | TGI [4] [µM] | GI50 [5] [µM] | TGI [5] [µM] | GI50 [6] [µM] | TGI [6] [µM] | GI50 [7] [µM] | TGI [7] [µM] | GI50 [8] [µM] | TGI [8] [µM] | GI50 [9] [µM] | TGI [9] [µM] | TGI [10] [µM] | GI50 [10] [µM]
1 | CN(C)c1ccc(/C=C(\C#N)c2cc3ccccc3[nH]2)cc1 | 0.454 | > 100 | 0.813 | 14.3 | 2.52 | > 100 | 0.497 | > 100 | 2.01 | > 100 | 0.542 | > 100 | 2.42 | > 100 | 0.61 | 7.33 | 0.913 | 18.6 | – | –
2 | Cc1ccc(N(C=O)c2c([N+](=O)[O-])cc([N+](=O)[O-])c3c2=[N+]([O-])CN=3)cc1 | – | 42.2 | – | – | – | 67.6 | – | > 100 | – | > 100 | – | 48.2 | – | 64 | – | > 100 | – | 79.9 | > 100 | –
3 | COc1cc(OCc2ccccc2)c2c(CCC(=O)O)cc(=O)oc2c1 (tested in a mixture with another compound) | – | > 100 | – | > 100 | – | > 100 | – | > 100 | – | > 100 | – | > 100 | – | > 100 | – | – | – | > 100 | > 100 | –
4 | Nc1cccc2c1-c1c(cccc1[N+](=O)[O-])C2=O | – | – | – | > 100 | – | > 100 | – | > 100 | – | 0.469 | – | > 100 | – | – | – | > 100 | – | > 100 | > 100 | –
5 | COc1cc(-c2nn(-c3ccc(NC(=O)Nc4cc(C(F)(F)F)cc(C(F)(F)F)c4)cc3)cc2-c2ccncc2)ccc1Cl | 1.7 | 3.43 | 2.13 | > 100 | 2.48 | 6.39 | – | – | 1.34 | 3.22 | 2.25 | 5.99 | 1.94 | 7.86 | 1.1 | 2.63 | 1.8 | 4.52 | 4.84 | 1.92
6 | C/C=C/C(=O)Oc1cccc2cccnc12 | – | – | – | 31.7 | – | > 100 | – | > 100 | – | > 84.7 | – | 5.15 | – | > 100 | – | > 100 | – | 12.9 | 68.6 | –
7 | CC1(C)C(=O)OC(n2cc(F)c(=O)[nH]c2=O)C1=O (stereo not given) | – | > 100 | – | > 100 | – | > 100 | – | – | – | > 100 | – | > 100 | – | > 100 | – | > 100 | – | > 100 | > 100 | –
8 | Nc1ccccc1C#C/C=C\C#Cc1ccccc1C#CCO | 8.35 | 24.2 | – | – | 6.39 | 17.8 | 0.405 | > 50 | 6.69 | > 50 | 11.8 | 28.2 | 6.11 | 18.3 | 6.8 | 16.7 | 7.41 | 18.7 | – | –
9 | NCCCNc1nc2ccccc2c2c(=O)c3cc(F)ccc3sc12 | 1.75 | 3.43 | 1.81 | 3.72 | 1.54 | 3.01 | 1.48 | 4.09 | 1.27 | 2.57 | 1.64 | 3.45 | 1.58 | 2.93 | 1.76 | 3.21 | 1.64 | 3.25 | – | –
10 | COC(=O)C1=CC2C(=O)OC1C1C(=O)NC(=O)C21 (stereo not given) | – | – | – | > 100 | – | > 100 | – | > 100 | – | > 100 | – | > 100 | – | > 100 | – | > 100 | – | > 100 | – | –
11 | CC1OC(n2cc(C(F)(F)F)c(=O)[nH]c2=O)C=CC1=O (stereo not given) | – | 34.6 | – | – | – | 33.1 | – | 33.3 | – | 33 | – | 32.5 | – | 31.4 | – | 81.5 | – | – | 66.1 | –
12 | N#C/C(=C\c1c(O)cc(O)cc1O)C(N)=O | – | > 100 | – | > 100 | – | > 100 | – | – | – | > 100 | – | > 100 | – | > 100 | – | > 100 | – | > 100 | > 100 | –
13 | COc1cccc(Nc2ncnc3cc(NC(=O)CCl)ccc23)c1 | 1.69 | 3.48 | 0.392 | 2.16 | 1.55 | 3.1 | – | – | 1.11 | 2.43 | 0.388 | 1.63 | 1.08 | 2.34 | 1.68 | 3.19 | 0.33 | 1.12 | 4.55 | 1.91
14 | O=C(Oc1ccccc1)N(c1ccccc1)c1ccccc1 | 30.6 | > 100 | 37 | > 100 | 26.2 | 83.4 | 29 | > 100 | 15 | > 100 | – | – | 28.8 | > 100 | 18.8 | 58.7 | 31.1 | > 100 | > 100 | 33.7
15 | c1ccc(-c2[nH]ncc2-c2ccnc(-c3ccc(OCCN4CCOCC4)cc3)c2)nc1 | > 25 | > 25 | > 25 | > 25 | > 25 | > 25 | – | – | 24.3 | > 25 | > 25 | > 25 | > 25 | > 25 | > 25 | > 25 | > 25 | > 25 | > 25 | > 25
16 | COc1ccc(Cn2cc(COc3cc(/C=C/C(=O)c4cc(OC)c(OC)c(OC)c4)ccc3OC)nn2)cc1 | 8.33 | 42.1 | 3.14 | > 100 | 5.01 | > 100 | 2.7 | > 100 | 4.71 | > 100 | 1.69 | 4.18 | 4.47 | > 100 | – | – | 3.8 | > 100 | 83.1 | 2.91
17 | O=c1nc2sc3ccccc3c(=O)n2[nH]1 | – | > 100 | – | > 100 | – | > 100 | – | > 100 | – | > 100 | – | – | – | > 100 | – | > 100 | – | > 100 | > 100 | –
